Results on 11 molecules are retold here after ChEMBL document CHEMBL1201862, “PubChem BioAssay data set” (2004).

Each structure is given as a SMILES string.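 A five-concentration, 48-hour dose response in 96-well plates underlies each endpoint, interpolated linearly between surrounding concentrations. Here, GI50 denotes the concentration required for 50% inhibition of growth.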 Calls of active or inactive are those of the source. Rule as the data show it: active = GI50 up to about 1.1 µM and inactive = higher.

Among the test systems are 786-0; A498; A549; EKVX; HL-60; HOP-92; Hs-578T; KM12; M14; MDA-MB-435; RXF 393; SF-539; SK-MEL-28; SK-OV-3; SNB-75; SW-620; TK-10; UO-31; NCI-H522.
Holding throughout (experiment): NCI anticancer screen, dose series, 48 h

For the molecule `Clc1cccc(/C=c2\nc(-c3ccccc3)n3c2nc2ccccc23)c1`, the GI50 in the experiment on 786-0 is > 100 µM (inactive); with A498, > 100 µM (inactive); in the experiment on A549 it was > 100 µM (inactive); in the experiment on EKVX, 28.5 µM (inactive); with HL-60 it was > 100 µM (inactive); in the experiment with HOP-92, 4.38 µM (inactive). Also, the GI50 was 98.6 µM (inactive) in the experiment on Hs-578T; > 100 µM (inactive) in the experiment on KM12; > 100 µM (inactive) in the experiment with M14; > 100 µM (inactive) with MDA-MB-435; 31.9 µM (inactive) in the experiment with RXF 393; 34.4 µM (inactive) in the experiment with SF-539. The GI50 was > 100 µM (inactive) in the experiment on SK-MEL-28; 57.5 µM (inactive) in the experiment with SK-OV-3; 20 µM (inactive) in the experiment on SNB-75; > 100 µM (inactive) in the experiment on SW-620; 87.1 µM (inactive) in the experiment with TK-10; > 100 µM (inactive) in the experiment with UO-31.

On to `O=C(O)c1nc2cc(Cl)ccc2[nH]c1=O`, for which the GI50 in the experiment with 786-0, in the experiment with A498, with A549, with EKVX, in the experiment with HL-60 and in the experiment with HOP-92 was > 100 µM (inactive) each time. In addition, the GI50 with Hs-578T, in the experiment with KM12, in the experiment with M14, with MDA-MB-435, in the experiment on NCI-H522 and with RXF 393 was > 100 µM (inactive) throughout. Moreover, the GI50 in the experiment with SF-539, in the experiment on SK-MEL-28, with SK-OV-3, with SW-620, in the experiment on TK-10 and with UO-31 was > 100 µM (inactive) throughout.

As to `Cc1c(/N=N/c2ccccc2)c(C)n(C2OC(CO)C(O)C(O)C2O)c(=S)c1C#N` (stereo not drawn), the GI50 was 31.6 µM (inactive) in the experiment with 786-0; 34.9 µM (inactive) with A498; 35.5 µM (inactive) with A549; 34.1 µM (inactive) with HL-60; 16.6 µM (inactive) with HOP-92; 1 µM (active) in the experiment on Hs-578T. The GI50 was 33.5 µM (inactive) with KM12; 25.6 µM (inactive) with M14; 13.1 µM (inactive) with MDA-MB-435; 33 µM (inactive) with RXF 393; 24.1 µM (inactive) in the experiment on SF-539; 32.7 µM (inactive) in the experiment with SK-MEL-28. Also, the GI50 was 34 µM (inactive) with SK-OV-3; 42.2 µM (inactive) in the experiment with SNB-75; 29.4 µM (inactive) in the experiment with SW-620; 27 µM (inactive) in the experiment with TK-10; 26.2 µM (inactive) in the experiment on UO-31.

Consider `COc1ccc(-c2ncnc(-c3ccc(OC)c(OC)c3)n2)cc1OC`, for which the GI50 with 786-0, with A498, with A549, in the experiment with EKVX, in the experiment with HL-60 and in the experiment with HOP-92 was > 100 µM (inactive) throughout. For the same molecule, the GI50 in the experiment on Hs-578T was > 100 µM (inactive); in the experiment on KM12 it was > 100 µM (inactive); in the experiment on M14, > 100 µM (inactive); in the experiment on MDA-MB-435 it was > 100 µM (inactive); in the experiment on NCI-H522, > 100 µM (inactive); in the experiment with RXF 393, 36.5 µM (inactive). Also, the GI50 with SK-MEL-28 was > 100 µM (inactive); with SK-OV-3, > 100 µM (inactive); with SNB-75, > 100 µM (inactive); in the experiment with SW-620, > 100 µM (inactive); with TK-10, > 100 µM (inactive); in the experiment on UO-31 it was 91 µM (inactive).

`CCN1CC2=C(OC(N)=C(C#N)C2c2ccc(Cl)cc2)/C(=C/c2ccc(Cl)cc2)C1` (stereo not drawn): the GI50 was 12.1 µM (inactive) with 786-0; 16.5 µM (inactive) with A498; 14.2 µM (inactive) in the experiment with A549; 39.5 µM (inactive) with EKVX; > 100 µM (inactive) with HL-60; 0.527 µM (active) in the experiment with HOP-92. Also, the GI50 is 22.6 µM (inactive) with Hs-578T; 33.2 µM (inactive) with KM12; 21.5 µM (inactive) in the experiment on M14; 43.3 µM (inactive) in the experiment with MDA-MB-435; 25.1 µM (inactive) in the experiment with NCI-H522; 12.3 µM (inactive) in the experiment with RXF 393. Moreover, the GI50 in the experiment on SK-MEL-28 was 14.9 µM (inactive); with SK-OV-3 it was 18.7 µM (inactive); with SNB-75, 12.5 µM (inactive); with SW-620 it was 44.1 µM (inactive); with TK-10 it was 21 µM (inactive); in the experiment on UO-31, 36.4 µM (inactive).

Turning to `CCCNC(=S)N/N=C/c1cccc(C)n1`, the GI50 in the experiment on 786-0 is 26 µM (inactive); in the experiment on A498, 33 µM (inactive); in the experiment with A549, 26.4 µM (inactive); in the experiment on EKVX, 30.9 µM (inactive); in the experiment on HL-60 it was 25.9 µM (inactive); in the experiment on HOP-92 it was 49 µM (inactive). Further, the GI50 in the experiment on Hs-578T is > 100 µM (inactive); with KM12, > 100 µM (inactive); with M14, 12.3 µM (inactive); with MDA-MB-435, 36.8 µM (inactive); in the experiment with NCI-H522 it was 4.04 µM (inactive); with RXF 393, 28.1 µM (inactive). Also, the GI50 in the experiment with SF-539 is 25.2 µM (inactive); in the experiment with SK-OV-3 it was 46 µM (inactive); in the experiment with TK-10, 65.8 µM (inactive); with UO-31 it was 17.2 µM (inactive).

In the case of `N/C(=N\c1ccccc1Cl)c1ccccc1N`, the GI50 is > 100 µM (inactive) in the experiment with 786-0; > 100 µM (inactive) in the experiment with A498; > 100 µM (inactive) with A549; > 100 µM (inactive) in the experiment with EKVX; > 100 µM (inactive) in the experiment with HL-60; 16 µM (inactive) in the experiment with HOP-92. Moreover, the GI50 in the experiment with Hs-578T, in the experiment with KM12, in the experiment on M14, in the experiment on MDA-MB-435, with NCI-H522 and in the experiment on RXF 393 was > 100 µM (inactive) in each case. Besides, the GI50 with SK-MEL-28 was > 100 µM (inactive); in the experiment with SK-OV-3, > 100 µM (inactive); with SNB-75 it was 95.5 µM (inactive); in the experiment with SW-620, > 100 µM (inactive); in the experiment on TK-10, > 100 µM (inactive); in the experiment on UO-31, > 100 µM (inactive).

For `c1ccc2c(c1)OC(N1CCCC1)c1cnc(N3CCOCC3)nc1-2` (stereo not drawn), the GI50 in the experiment on 786-0 is 59.8 µM (inactive); with A498, 18.7 µM (inactive); with A549, 57.7 µM (inactive); with EKVX it was 21.6 µM (inactive); in the experiment on HL-60 it was 74.1 µM (inactive); with HOP-92 it was 16.8 µM (inactive). Besides, the GI50 with Hs-578T is 51.1 µM (inactive); with KM12 it was > 100 µM (inactive); in the experiment on M14 it was 57.8 µM (inactive); with MDA-MB-435, 67 µM (inactive); in the experiment on RXF 393, 21.7 µM (inactive); with SF-539 it was > 100 µM (inactive). Also, the GI50 in the experiment on SK-MEL-28 was > 100 µM (inactive); with SK-OV-3, 35.2 µM (inactive); with SNB-75, 17.1 µM (inactive); in the experiment with SW-620, 91 µM (inactive); with TK-10, 29.9 µM (inactive); with UO-31, 19.3 µM (inactive).

For the molecule `O=C1Nc2c(Cl)cc(Cl)cc2/C1=N/NC(=O)c1ccccc1O`, the GI50 is 12.8 µM (inactive) in the experiment on 786-0; 16.5 µM (inactive) in the experiment on A498; 13.2 µM (inactive) with A549; 13.2 µM (inactive) with EKVX; 15.1 µM (inactive) in the experiment with HL-60; 15 µM (inactive) in the experiment on HOP-92. The GI50 in the experiment on Hs-578T is 14.8 µM (inactive); in the experiment with KM12, 15.5 µM (inactive); with M14, 16.1 µM (inactive); with MDA-MB-435, 13.2 µM (inactive); in the experiment on RXF 393 it was 12.2 µM (inactive); in the experiment with SF-539 it was 14.6 µM (inactive). Also, the GI50 in the experiment on SK-MEL-28 is 15.5 µM (inactive); with SK-OV-3 it was 16.8 µM (inactive); in the experiment with SNB-75, 9.77 µM (inactive); with SW-620 it was 16.9 µM (inactive); in the experiment with TK-10, 15.2 µM (inactive); with UO-31 it was 11.9 µM (inactive).

With `COC(=O)C1=C(C(=O)OC)SC(=C2S[C@@H]3[C@@H]4C[C@H]([C@@H]3S2)[C@H]2C(=O)OC(=O)[C@@H]42)S1`, the GI50 in the experiment with 786-0, in the experiment on A498, in the experiment with A549, in the experiment on EKVX, in the experiment on HL-60 and in the experiment with HOP-92 was > 100 µM (inactive) each time. Moreover, the GI50 in the experiment on Hs-578T, in the experiment on KM12, with M14, in the experiment with MDA-MB-435, in the experiment with NCI-H522 and in the experiment on RXF 393 was > 100 µM (inactive) each time. Also, the GI50 with SF-539, in the experiment with SK-MEL-28, with SW-620, in the experiment with TK-10 and with UO-31 was > 100 µM (inactive) each time.

Consider `CN1CCN(C(=O)CCC(=O)Nc2cc3c(c4ccccc24)-c2ccc4ccccc4c2C3)CC1`, for which the GI50 with 786-0 is 1.69 µM (inactive); with A498, 13.8 µM (inactive); in the experiment with A549, 1.96 µM (inactive); in the experiment with EKVX, 1.67 µM (inactive); in the experiment on HL-60, 2 µM (inactive); in the experiment on HOP-92 it was 1.73 µM (inactive). Besides, the GI50 is 2.63 µM (inactive) with Hs-578T; 1.55 µM (inactive) in the experiment on KM12; 1.45 µM (inactive) in the experiment on M14; 1.51 µM (inactive) in the experiment with MDA-MB-435; 1.63 µM (inactive) in the experiment on NCI-H522; 1.73 µM (inactive) in the experiment with RXF 393. The GI50 was 1.73 µM (inactive) with SF-539; 1.79 µM (inactive) in the experiment on SK-MEL-28; 1.6 µM (inactive) in the experiment with SK-OV-3; 1.73 µM (inactive) in the experiment on TK-10; 1.65 µM (inactive) in the experiment with UO-31.
